This note sets out measurements from PubChem BioAssay (NCI).

Each structure is given as a SMILES string.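 Step 1: Grow cells in 96-well plates. Step 2: Expose to compound for 48 hours at 5 concentrations. Step 3: Interpolate endpoints linearly; if unreached, use highest concentration. Here, GI50 denotes the concentration required for 50% inhibition of growth. TGI is the concentration that stops growth completely.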

The first experiment has as its system SW-620 colon. In words: NCI-60 cell line screen, 48 h.
`Cc1nc2cccc([N+](=O)[O-])c2c(NCCCN(C)C)c1C`: the TGI was > 100 µM.
Take `NCC(=O)NS(=O)(=O)OC[C@H]1O[C@@H](n2cnc3c(N)ncnc32)[C@H](O)[C@@H]1O`: the GI50 was 3.71 µM and the TGI was determined as 24.6 µM.
The like results for `Cc1c(C(=O)N/N=C/c2ccc(Cl)cc2)nnn1-c1ccnc2c(C(F)(F)F)cccc12` were, in that order, 5.09 µM and 47.6 µM.
Taken in the same sequence, the figures for `Cc1nn(CN2CCN(C)CC2)c(=S)n1/N=C/c1cccc2ccccc12` were 31.4 µM and > 100 µM.
Taken in the same sequence, the figures for `N#C/C(=C1C=C/C(=N/O)C(Br)=C/1)c1ccccc1` were 0.637 µM and 10.8 µM.
Turning to `CN(C)CCNc1cc(-c2ccccc2)nc2ccccc12`, the GI50 was 3.94 µM and the TGI came to 21.5 µM.
Taken in the same sequence, the figures for `COc1cccc(/C=N/NC(=O)c2ccccc2Nc2ccnc(C(F)(F)F)c2)c1O` were 0.918 µM and > 70.1 µM.
Taken in the same sequence, the figures for `CN1CCN(Cc2ccc(NC(=O)c3cncc(C#Cc4cnc(N)c5ccc(C#N)cc45)c3)cc2C(F)(F)F)CC1` were 0.059 µM and 1.45 µM.
As to `CCOC(=O)CCc1cc(=O)oc2cc(O)cc(O)c12`, the TGI is > 100 µM.
Turning to `COC(=O)c1cc2c3ccccc3[nH]c2c2ncccc12`, the GI50 is 38.4 µM and the TGI was > 100 µM.
The compound `CNC(=O)OCc1c(COC(=O)NC)c(-c2ccc(Cl)c(Cl)c2)n2c1SCC2` registered a TGI of 26.3 µM.
On to `COc1cc(OC)cc(-c2ccc(-c3ccc(C(=N)N)o3)o2)c1`, for which the GI50 is 1.88 µM and the TGI was determined as 4.06 µM.
Taken in the same sequence, the figures for `C[C@]12CC[C@H](O)CC1=CC[C@@H]1[C@@H]2CC[C@]2(C)C(c3cccnc3)=CC[C@@H]12` were > 100 µM and > 100 µM.
As to `Cc1ccc2c(c1)C(=O)/C(=C/c1ncc([N+](=O)[O-])n1C)O2`, the GI50 was 0.271 µM and the TGI is 2.3 µM.
Consider `CC1OC(n2cc(F)c(=O)[nH]c2=O)CCC1O` (stereo unspecified), for which the TGI is > 100 µM.
Turning to `O=C(NCCOCCOCCNc1cccc2c1C(=O)N(C1CCCNC1=O)C2=O)c1cc2c(o1)C(=O)c1ccccc1C2=O` (stereo unspecified), the GI50 was 2.35 µM and the TGI is 7.52 µM.
`CC1CCC2(C(=O)O)CCC3(C)C(=CCC4C5(C)CC(O)C(O)C(C)(CO)C5C(O)CC43C)C2C1C` (stereo unspecified): the TGI was > 100 µM.

Another experiment relates to HCT-15 colon. In words: NCI-60 cell line screen, 48 h.
With `Cc1nc2cccc([N+](=O)[O-])c2c(NCCCN(C)C)c1C`, the TGI is > 52.8 µM.
Regarding `NCC(=O)NS(=O)(=O)OC[C@H]1O[C@@H](n2cnc3c(N)ncnc32)[C@H](O)[C@@H]1O`, the GI50 is 2.92 µM and the TGI was found to be 10.1 µM.
Taken in the same sequence, the figures for `Cc1c(C(=O)N/N=C/c2ccc(Cl)cc2)nnn1-c1ccnc2c(C(F)(F)F)cccc12` were 2.88 µM and 16.3 µM.
Taken in the same sequence, the figures for `Cc1nn(CN2CCN(C)CC2)c(=S)n1/N=C/c1cccc2ccccc12` were 16 µM and 33.5 µM.
The like results for `N#C/C(=C1C=C/C(=N/O)C(Br)=C/1)c1ccccc1` were, in that order, 2.41 µM and > 100 µM.
For `CN(C)CCNc1cc(-c2ccccc2)nc2ccccc12`, the GI50 was 4.48 µM and the TGI was found to be 62.5 µM.
The like results for `COc1cccc(/C=N/NC(=O)c2ccccc2Nc2ccnc(C(F)(F)F)c2)c1O` were, in that order, 0.201 µM and > 100 µM.
On to `CN1CCN(Cc2ccc(NC(=O)c3cncc(C#Cc4cnc(N)c5ccc(C#N)cc45)c3)cc2C(F)(F)F)CC1`, for which the GI50 is 0.122 µM and the TGI turned out to be 0.787 µM.
For the compound `CCOC(=O)CCc1cc(=O)oc2cc(O)cc(O)c12`, the TGI is > 100 µM.
As to `COC(=O)c1cc2c3ccccc3[nH]c2c2ncccc12`, the GI50 is 21.4 µM and the TGI was > 100 µM.
In the case of `CNC(=O)OCc1c(COC(=O)NC)c(-c2ccc(Cl)c(Cl)c2)n2c1SCC2`, the TGI stood at 28.1 µM.
Regarding `COc1cc(OC)cc(-c2ccc(-c3ccc(C(=N)N)o3)o2)c1`, the GI50 was 3.18 µM and the TGI turned out to be 10.4 µM.
As to `C[C@]12CC[C@H](O)CC1=CC[C@@H]1[C@@H]2CC[C@]2(C)C(c3cccnc3)=CC[C@@H]12`, the GI50 was 25.8 µM and the TGI was > 100 µM.
The like results for `Cc1ccc2c(c1)C(=O)/C(=C/c1ncc([N+](=O)[O-])n1C)O2` were, in that order, 0.369 µM and 8.78 µM.
On to `CC1OC(n2cc(F)c(=O)[nH]c2=O)CCC1O` (stereo unspecified), for which the TGI was > 100 µM.
Consider `O=C(NCCOCCOCCNc1cccc2c1C(=O)N(C1CCCNC1=O)C2=O)c1cc2c(o1)C(=O)c1ccccc1C2=O` (stereo unspecified), for which the GI50 was 2.06 µM and the TGI turned out to be 5.5 µM.
For `CC1CCC2(C(=O)O)CCC3(C)C(=CCC4C5(C)CC(O)C(O)C(C)(CO)C5C(O)CC43C)C2C1C` (stereo unspecified), the TGI was > 100 µM.

A further experiment relates to MCF7 breast. Kind of experiment: NCI-60 cell line screen, 48 h.
The compound `Cc1nc2cccc([N+](=O)[O-])c2c(NCCCN(C)C)c1C` displayed a TGI of 60.6 µM.
As for `NCC(=O)NS(=O)(=O)OC[C@H]1O[C@@H](n2cnc3c(N)ncnc32)[C@H](O)[C@@H]1O`, the GI50 was 2.85 µM and the TGI was determined as 18.7 µM.
In the case of `Cc1c(C(=O)N/N=C/c2ccc(Cl)cc2)nnn1-c1ccnc2c(C(F)(F)F)cccc12`, the GI50 is 2.27 µM and the TGI came to 5.61 µM.
The like results for `Cc1nn(CN2CCN(C)CC2)c(=S)n1/N=C/c1cccc2ccccc12` were, in that order, 20.1 µM and 50.9 µM.
The like results for `N#C/C(=C1C=C/C(=N/O)C(Br)=C/1)c1ccccc1` were, in that order, 0.323 µM and 11.3 µM.
The like results for `CN(C)CCNc1cc(-c2ccccc2)nc2ccccc12` were, in that order, 3.68 µM and 19.7 µM.
On to `COc1cccc(/C=N/NC(=O)c2ccccc2Nc2ccnc(C(F)(F)F)c2)c1O`, for which the GI50 was 0.313 µM and the TGI turned out to be 29.5 µM.
